Data published in patent US20100022521A1, “COMPOUNDS” (Hansa Metallwerke AG, priority 2005, published 2010).

Key:
mGluR5 = mGluR5 (UniProt P31424); assay: MGluR5 receptor binding test ([3H]-M-MPEP displacement); parameters: species or system rat; conditions: radioligand [3H]-M-MPEP (2 nM); species not given; read-out: mGlu5 Ki
Method: MGluR5 Receptor Binding Tests
Rat cerebro-cortical membrane preparation was used to determine the binding characteristics of reference compounds and novel compounds to the rat mGluR5. The A18 cell line expressing hmGluR5a (purchased from Euroscreen) was used to determine binding characteristics of the chemical compounds to the human mGluR5a receptor. As radioligand [3H]-M-MPEP (2 nM) was used. The nonspecific binding was determined in the presence of 10 μM M-MPEP.

rat mGluR1 = molecular target: T1, rat mGluR1 (Rattus norvegicus, UniProt P23385); assay: MGluR1 receptor binding test ([3H]R214127 displacement); conditions: rat cerebellar membrane; radioligand [3H]R214127 (3 nM); read-out: mGlu1 Ki
T1 construct: rat cerebellar membrane preparation was used; from tissue; host or cells: rat cerebellum (membrane preparation)
Method: MGluR1 Receptor Binding Test
MGluR1 receptor binding testes were performed according to modified method of Lavreysen et al. (Mol. Pharm., 2003, 63, 1082). Based on the high homology between the human and rat mGluR1 receptors, rat cerebellar membrane preparation was used to determine the binding characteristics of reference compounds and novel compounds to the rat mGluR1. As radioligand [3H]R214127 (3 nM) was used and the nonspecific binding was determined in the presence of 1 μM of R214127.
IC-50 values were determined from displacement curves by nonlinear regression analysis and were converted by equation method of Cheng and Prusoff (Biochem. Pharmacol., 1973, 22, 3099) to Ki values.

T1 sequence (P23385 19-1199): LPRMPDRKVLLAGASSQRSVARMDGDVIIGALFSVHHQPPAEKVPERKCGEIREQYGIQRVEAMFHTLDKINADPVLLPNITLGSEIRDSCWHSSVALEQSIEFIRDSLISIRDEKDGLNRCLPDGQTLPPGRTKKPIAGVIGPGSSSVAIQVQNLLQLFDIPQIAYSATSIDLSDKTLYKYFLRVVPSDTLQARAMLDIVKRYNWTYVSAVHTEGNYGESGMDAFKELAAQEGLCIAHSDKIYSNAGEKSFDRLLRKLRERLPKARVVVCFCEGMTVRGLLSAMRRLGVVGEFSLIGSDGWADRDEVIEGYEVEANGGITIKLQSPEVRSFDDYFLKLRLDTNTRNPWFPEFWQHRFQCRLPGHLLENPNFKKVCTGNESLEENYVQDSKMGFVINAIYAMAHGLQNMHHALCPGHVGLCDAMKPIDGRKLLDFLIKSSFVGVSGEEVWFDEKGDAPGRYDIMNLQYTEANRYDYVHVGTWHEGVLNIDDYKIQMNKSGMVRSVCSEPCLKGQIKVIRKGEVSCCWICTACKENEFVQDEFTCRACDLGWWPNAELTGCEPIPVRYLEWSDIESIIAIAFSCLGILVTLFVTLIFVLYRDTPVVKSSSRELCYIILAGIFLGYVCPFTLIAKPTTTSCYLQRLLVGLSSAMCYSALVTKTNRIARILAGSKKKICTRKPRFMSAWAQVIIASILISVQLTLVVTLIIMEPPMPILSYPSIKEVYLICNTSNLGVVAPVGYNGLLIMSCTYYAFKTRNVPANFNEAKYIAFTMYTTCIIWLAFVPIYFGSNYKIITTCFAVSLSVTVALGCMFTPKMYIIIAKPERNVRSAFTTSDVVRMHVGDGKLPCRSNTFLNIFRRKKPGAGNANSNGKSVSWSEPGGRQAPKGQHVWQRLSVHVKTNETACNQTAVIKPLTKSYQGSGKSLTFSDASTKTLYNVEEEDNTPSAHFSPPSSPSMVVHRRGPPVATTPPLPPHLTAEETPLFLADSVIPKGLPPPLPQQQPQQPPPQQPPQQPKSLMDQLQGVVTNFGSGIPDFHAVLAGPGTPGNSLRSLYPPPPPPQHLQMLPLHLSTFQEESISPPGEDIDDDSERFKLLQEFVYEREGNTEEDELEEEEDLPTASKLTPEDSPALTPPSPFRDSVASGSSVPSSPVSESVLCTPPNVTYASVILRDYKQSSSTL

SMILES | Ki (mGluR5) [nM] | Ki (rat mGluR1) [nM]
N#Cc1cccc(S(=O)(=O)c2sc3nc(F)ccc3c2-c2ccc(F)cc2)c1 [Compound 75] | < 500 | > 1500
N#Cc1cc(F)cc(S(=O)(=O)c2sc3ncccc3c2-c2ccc(Cl)cc2)c1 [Compound 40] | < 500 | 500 to 1500
O=S(=O)(c1cccc(C(F)(F)F)c1)c1sc2ncccc2c1-c1ccc(Cl)cc1 [Compound 28] | < 500 | > 1500
N#Cc1cccc(S(=O)(=O)c2sc3ncccc3c2-c2cccc(F)c2)c1 [Compound 52] | < 500 | < 500
O=S(=O)(c1cccc(F)c1)c1sc2ncccc2c1-c1ccc(F)cc1 [Compound 78] | < 500 | > 1500
O=S(=O)(NCc1ccc(Cl)cc1)c1sc2ncccc2c1-c1ccc(Cl)cc1 [Compound 21, 3-(4-Chlorophenyl)-thieno[2,3-b]pyridine-2-sulfonic acid 4-chloro-benzylamide] | > 1500 | > 1500
O=S(=O)(c1ccccc1)c1sc2ncccc2c1-c1ccc(Cl)cc1 [Compound 8] | < 500 | > 1500
N#Cc1cccc(S(=O)(=O)c2sc3ncccc3c2-c2ccc(Cl)cc2)c1 [Compound 9] | < 500 | < 500
COc1cccc(-c2c(S(=O)(=O)c3cccc(C#N)c3)sc3ncccc23)c1 [Compound 67] | < 500 | < 500
N#Cc1cccc(S(=O)(=O)c2sc3ncccc3c2-c2ccccc2Cl)c1 [Compound 83] | < 500 | < 500
Cc1noc(C)c1S(=O)(=O)c1sc2ncccc2c1-c1ccc(Cl)cc1 [Compound 14] | > 1500 | > 1500
O=S(=O)(Nc1ccc(Cl)cc1)c1sc2ncccc2c1-c1ccc(Cl)cc1 [Compound 15, 3-(4-Chlorophenyl)-thieno[2,3-b]pyridine-2-sulfonic acid (4-chloro-phenyl)-amide] | 500 to 1500 | > 1500
Cc1ccc(-c2c(S(=O)(=O)c3cccc(C#N)c3)sc3ncccc23)cc1 [Compound 59] | < 500 | < 500
Cc1ccc(S(=O)(=O)c2sc3nc(F)ccc3c2-c2ccc(Cl)cc2)cc1F [Compound 89] | < 500 | > 1500
Nc1cnc2sc(S(=O)(=O)c3ccc(Cl)cc3)c(-c3ccc(Cl)cc3)c2c1 [Compound 79, 2-(4-Chloro-benzenesulfonyl)-3-(4-chloro-phenyl)-thieno[2,3-b]pyridin-5-ylamine] | < 500 | < 500
O=S(=O)(c1cccs1)c1sc2ncccc2c1-c1ccc(Cl)cc1 [Compound 13] | 500 to 1500 | > 1500
O=S(=O)(c1sc2ncccc2c1-c1ccc(Cl)cc1)C1CCCCC1 [Compound 16] | > 1500 | > 1500
O=S(=O)(c1ccc(Cl)cc1)c1sc2ncccc2c1-c1ccc(Cl)cc1 [Compound 1, 2-(4-Chloro-benzenesulfonyl)-3-(4-chloro-phenyl)-thieno[2,3-b]pyridine] | < 500 | > 1500
Cc1ccc(S(=O)(=O)c2sc3ncccc3c2-c2ccc(Cl)cc2)cc1 [Compound 4] | < 500 | 500 to 1500
Cc1ccc(-c2c(S(=O)(=O)c3ccc(Cl)cc3)sc3ncccc23)cc1 [Compound 35] | < 500 | > 1500

SMILES | Ki (mGluR5) [nM] | Ki (rat mGluR1) [nM]
O=S(=O)(c1cccnc1)c1sc2ncccc2c1-c1ccc(Cl)cc1 [Compound 10] | < 500 | > 1500
N#Cc1ccc(S(=O)(=O)c2sc3ncccc3c2-c2ccc(Cl)cc2)cc1 [Compound 7] | < 500 | > 1500
Cc1ccc(S(=O)(=O)c2sc3ncccc3c2-c2ccc(F)cc2)cc1F [Compound 82] | < 500 | > 1500
COc1ccc(S(=O)(=O)c2sc3ncccc3c2-c2ccc(Cl)cc2)cc1 [Compound 48] | < 500 | < 500
O=S(=O)(c1ccc(Cl)c(Cl)c1)c1sc2ncccc2c1-c1ccc(Cl)cc1 [Compound 80] | < 500 | 500 to 1500
O=S(=O)(c1ccc(Cl)cc1)c1sc2nccc(Cl)c2c1-c1ccc(Cl)cc1 [Compound 57, 4-Chloro-2-(4-chloro-benzenesulfonyl)-3-(4-chloro-phenyl)-thieno[2,3-b]pyridine] | < 500 | –
COc1ccc(-c2c(S(=O)(=O)c3cccc(C#N)c3)sc3ncccc23)cc1 [Compound 84] | < 500 | –
O=S(=O)(c1ccc(Cl)cc1)c1sc2ncccc2c1N1CC[C@@H](F)C1 [Compound 141] | < 500 | –
O=S(=O)(c1cccc(F)c1)c1sc2nc(F)ccc2c1-c1ccc(Cl)cc1 [Compound 77] | < 500 | –
CN1CCN(C(=O)Nc2c(S(=O)(=O)c3ccc(Cl)cc3)sc3ncccc23)CC1 [Compound 122] | > 1500 | –
O=S(=O)(c1ccccc1Cl)c1sc2ncccc2c1-c1ccc(Cl)cc1 [Compound 6] | 500 to 1500 | –
CC1CCN(c2c(S(=O)(=O)c3ccc(Cl)cc3)sc3nc(Cl)ccc23)CC1 [Compound 119] | < 500 | –
Cc1cccc(S(=O)(=O)c2sc3ncccc3c2-c2ccc(Cl)cc2)c1 [Compound 22] | < 500 | –
O=S(=O)(c1ccc(Cl)cc1)c1sc2ncccc2c1-c1cccc(Cl)c1 [Compound 60] | < 500 | –
CC1CCN(c2c(S(=O)(=O)c3ccc(Cl)cc3)sc3ncccc23)CC1 [Compound 94] | < 500 | –
O=S(=O)(c1ccc(Cl)cc1)c1sc2ncccc2c1N1CC[S+]([O-])CC1 [Compound 117] | > 1500 | –
O=S(=O)(c1cc(F)cc(C(F)(F)F)c1)c1sc2ncccc2c1-c1ccc(Cl)cc1 [Compound 34] | < 500 | –
COc1ccnc2sc(S(=O)(=O)c3ccc(Cl)cc3)c(-c3ccc(Cl)cc3)c12 [Compound 101, 2-(4-chloro-benzenesulfonyl)-3-(4-chloro-phenyl)-4-methoxy-thieno[2,3-b]pyridine] | < 500 | –
Cc1ccc(S(=O)(=O)c2sc3ncccc3c2-c2ccc(F)cc2)cc1Cl [Compound 23] | < 500 | –
CN(C)c1ccc(S(=O)(=O)c2sc3nccc(N(C)C)c3c2-c2ccc(Cl)cc2)cc1 [Compound 124, 3-(4-chloro-phenyl)-4-dimethylamino-2-(4-dimethylamino-benzenesulfonyl)-thieno[2,3-b]pyridine] | > 1500 | –

SMILES | Ki (mGluR5) [nM] | Ki (rat mGluR1) [nM]
CNC(=O)Nc1c(S(=O)(=O)c2ccc(Cl)cc2)sc2ncccc12 [Compound 112] | > 1500 | –
Cc1cc(C)cc(S(=O)(=O)c2sc3ncccc3c2-c2ccc(Cl)cc2)c1 [Compound 44] | < 500 | –
O=S(=O)(c1ccc(Cl)cc1)c1sc2ncccc2c1N1CCC(CO)CC1 [Compound 140] | < 500 | –
O=S(=O)(c1cccc(Cl)c1)c1sc2ncccc2c1-c1ccc(F)cc1 [Compound 54] | < 500 | –
N#Cc1cccc(S(=O)(=O)c2sc3nc(Cl)ccc3c2-c2ccc(F)cc2)c1 [Compound 74] | < 500 | –
O=S(=O)(c1ccc(Cl)cc1)c1sc2nccc(O)c2c1-c1ccc(Cl)cc1 [Compound 103, 2-(4-chloro-benzenesulfonyl)-3-(4-chloro-phenyl)-4-hydroxy-thieno[2,3-b]pyridine] | 500 to 1500 | –
Nc1ccc2c(-c3ccc(Cl)cc3)c(S(=O)(=O)c3ccc(Cl)cc3)sc2n1 [Compound 49, 6-Amino-2-(4-chloro-benzenesulfonyl)-3-(4-chloro-phenyl)-thieno[2,3-b]pyridine] | < 500 | –
CS(=O)(=O)NC1CCN(c2c(S(=O)(=O)c3ccc(Cl)cc3)sc3ncccc23)CC1 [Compound 116] | > 1500 | –
O=S(=O)(c1ccc(Cl)cc1)c1sc2ncc(F)cc2c1-c1ccc(Cl)cc1 [Compound 123, 2-(4-Chloro-benzenesulfonyl)-3-(4-chloro-phenyl)-5-fluoro-thieno[2,3-b]pyridine] | < 500 | –
CN(C)c1ccc(S(=O)(=O)c2sc3ncccc3c2-c2ccc(Cl)cc2)cc1 [Compound 71] | < 500 | –
COc1ccc2c(-c3ccc(Cl)cc3)c(S(=O)(=O)c3cccc(C#N)c3)sc2n1 [Compound 64, 2-(3-Cyano-benzenesulfonyl)-3-(4-chloro-phenyl)-6-methoxy-thieno[2,3-b]pyridine] | < 500 | –
O=S(=O)(c1ccc(Cl)cc1)c1sc2ncccc2c1N1CCN(c2ccc(F)cc2)CC1 [Compound 118] | > 1500 | –
N#Cc1cccc(S(=O)(=O)c2sc3nc(Cl)ccc3c2-c2ccc(Cl)cc2)c1 [Compound 51] | > 1500 | –
N#Cc1cccc(S(=O)(=O)c2sc3ncccc3c2-c2ccc(F)cc2)c1 [Compound 29] | < 500 | –
O=S(=O)(c1ccc(Cl)cc1)c1sc2nccc(F)c2c1-c1ccc(Cl)cc1 [Compound 102, 4-Fluor-2-(4-chloro-benzenesulfonyl)-3-(4-chloro-phenyl)-thieno[2,3-b]pyridine] | < 500 | –
O=C(Nc1c(S(=O)(=O)c2ccc(Cl)cc2)sc2ncccc12)N1CCCCC1 [Compound 121] | > 1500 | –
Cc1ccc(-c2c(S(=O)(=O)c3cccc(Cl)c3)sc3ncccc23)cc1 [Compound 37] | < 500 | –
CC1CCN(S(=O)(=O)c2sc3ncccc3c2-c2ccc(Cl)cc2)CC1 [Compound 20, 3-(4-Chlorophenyl)-2-(4-methyl-piperidine-1-sulfonyl)-thieno[2,3-b]pyridine] | 500 to 1500 | –
O=S(=O)(c1ccc(Br)s1)c1sc2ncccc2c1-c1ccc(Cl)cc1 [Compound 45] | < 500 | –
